Measured values from patent US6677368B2, “4-aryl substituted indolinones” (Sugen, Inc., priority 2000, dated 2004).

How the values were obtained:
Format in all cases: biochemical
FLK-1 = biological target: T1, FLK-1 (Mus musculus, UniProt P35918); assay: GST-FLK-1 bioassay (tyrosine kinase activity on poly(glu-tyr)); settings: GST-Flk1, poly(glu-tyr) substrate, 0.5 μM ATP
T1 construct: GST-Flklcd purified from sf9 recombinant baculovirus transfomnation (SUGEN, Inc.); host or cells: Sf9 insect cells, recombinant baculovirus
Experimental: This assay analyzes the tyrosine kinase activity of GST-Flk1 on poly(glu-tyr) peptides.
1. Corning 96-well ELISA plates (Corning Catalog No. 25805-96).
2. poly(glu-tyr) 4:1, lyophilizate (Sigma Catalog No. P0275), 1 mg/ml in sterile PBS.
3. PBS Buffer: for 1 L, mix 0.2 g KH2PO4, 1.15 g Na2HPO4, 0.2 g KCl and 8 g NaCl in approx. 900 ml dH2O. When all reagents have dissolved, adjust the pH to 7.2 with HCl. Bring total volume to 1 L with dH2O.
4. PBST Buffer: to 1 L of PBS Buffer, add 1.0 ml Tween-20.
5. TBB—Blocking Buffer: for 1 L, mix 1.21 g TRIS, 8.77 g NaCl, 1 ml TWEEN-20 in approximately 900 ml dH2O. Adjust pH to 7.2 with HCl. Add 10 g BSA, stir to dissolve. Bring total volume to 1 L with dH2O. Filter to remove particulate matter.
6. 1% BSA in PBS: add 10 g BSA to approx. 990 ml PBS buffer, stir to dissolve. Adjust total volume to 1 L with PBS buffer, filter to remove particulate matter.
8. GST-Flklcd purified from sf9 recombinant baculovirus transfomnation (SUGEN, Inc.).
12. Kinase Dilution Buffer (KDB): mix 10 ml Hepes (pH 7.5), 1 ml 5M NaCl, 40 μL 100 mM sodium orthovanadate and 0.4 ml of 5% BSA in dH2O with 88.56 ml dH2O.
13. NUNC 96-well V bottom polypropylene plates, Applied Scientific Catalog #AS-72092
14. EDTA: mix 14.12 g ethylenediaminetetraacetic acid (EDTA) with approx. 70 ml dH2O. Add 10 N NaOH until EDTA dissolves. Adjust pH to 8.0. Adjust total volume to 100 ml with dH2O.
15. 1° and 2° Antibody Dilution Buffer: mix 10 ml of 5% BSA in PBS buffer with 89.5 ml TBST.
16. Anti-phosphotyrosine rabbit polyclonal antisera (SUGEN, Inc.)
17. Goat anti-rabbit HRP conjugate.
18. ABST solution: To approx. 900 ml dH2O add 19.21 g citric acid and 35.49 g Na2HPO4. Adjust pH to 4.0 with phosphoric acid. Add 2,2′-Azinobis(3-ethyl-benzthiazoline-6-sulfonic acid (ABTS, Sigma, Cat. No. A-1888, hold for approx. ½ hour, filter.
19. 30% Hydrogen Peroxide.
20. ABST/H2O2: add 3 μl of H2O2 to 15 ml of ABST solution.
1. Coat Corning 96-well ELISA plates with 2 μg of polyEY in 100 μl PBS/well, hold at room temperature for 2 hours or at […] overnight. Cover plates to prevent evaporation.
2. Remove unbound liquid from wells by inverting plate. Wash once with TBST. Pat the plate on a paper towel to remove excess liquid.
3. Add 100 μl of 1% BSA in PBS to each well. Incubate, with shaking, for 1 hr. at room temperature.
5. Soak wells with 50 mM HEPES (pH7.5, 150 μl/well).
6. Dilute test compound with dH2O/4% DMSO to 4 times the desired final assay concentration in 96-well polypropylene plates.
7. Add 25 μl diluted test compound to each well of ELISA plate. In control wells, place 25 μl of dH2O/4% DMSO.
8. Dilute GST-Flk1 0.005 μg (5 ng)/well in KDB.
9. Add 50 μl of diluted enzyme to each well.
10. Add 25 μl 0.5 M EDTA to negative control wells.
11. Add 25 μl of 40 mM MnCl2 with 4×ATP (2 μM) to all wells (100 μl final volume, 0.5 μM ATP final concentration in each well).
12. Incubate, with shaking, for 15 minutes at room temperature.
13. Stop reaction by adding 25 μl of 500 mM EDTA to each well.
14. Wash 3× with TBST and pat plate on paper towel to remove excess liquid.
15. Add 100 μl per well anti-phosphotyrosine antisera, 1:10,000 dilution in antibody dilution buffer. Incubate, with shaking, for 90 min. at room temperature.
17. Add 100 μl/well of goat anti-rabbit HRP conjugate (1:6,000 in antibody dilution buffer). Incubate, with shaking, for 90 minutes are room temperature.
19. Add 100 μl room temperature ABST/H2O2 solution to each well.
20. Incubate, with shaking for 15 to 30 minutes at room temperature.
21. If necessary, stop reaction by adding 100 μl of 0.2 M HCl to each well.
22. Read results on Dynatech MR7000 ELISA reader with test filter at 410 nM and reference filter at 630 nM.

EGFR = EGFR (Homo sapiens, UniProt P00533); assay: EGFR kinase inhibition
FGFR3 = FGFR3 (Homo sapiens, UniProt P22607); assay: FGFR3 kinase inhibition
Chain of FGFR3 (P22607 23-806, species assumed): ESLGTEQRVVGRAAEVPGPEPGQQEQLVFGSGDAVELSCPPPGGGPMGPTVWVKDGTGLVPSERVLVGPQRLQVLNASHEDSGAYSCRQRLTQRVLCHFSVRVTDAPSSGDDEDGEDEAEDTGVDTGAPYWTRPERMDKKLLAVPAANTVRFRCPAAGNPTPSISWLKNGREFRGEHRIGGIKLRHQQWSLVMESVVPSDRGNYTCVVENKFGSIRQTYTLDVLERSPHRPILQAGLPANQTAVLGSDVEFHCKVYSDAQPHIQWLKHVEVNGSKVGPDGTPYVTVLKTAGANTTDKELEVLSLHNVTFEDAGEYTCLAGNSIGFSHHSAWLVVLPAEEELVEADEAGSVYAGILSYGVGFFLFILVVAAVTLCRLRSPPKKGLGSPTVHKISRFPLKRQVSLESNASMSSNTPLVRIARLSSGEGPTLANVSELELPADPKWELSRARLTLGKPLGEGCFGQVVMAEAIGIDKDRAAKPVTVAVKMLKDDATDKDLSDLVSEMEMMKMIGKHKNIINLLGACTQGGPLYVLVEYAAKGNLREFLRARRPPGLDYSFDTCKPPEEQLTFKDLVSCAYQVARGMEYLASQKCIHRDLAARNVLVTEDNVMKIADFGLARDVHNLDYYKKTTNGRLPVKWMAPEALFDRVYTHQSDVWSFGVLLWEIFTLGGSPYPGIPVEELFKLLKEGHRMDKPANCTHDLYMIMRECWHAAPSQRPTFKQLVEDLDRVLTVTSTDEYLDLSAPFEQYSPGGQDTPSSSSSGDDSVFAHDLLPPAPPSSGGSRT

T1 sequence (P35918 784-1345 limits assumed): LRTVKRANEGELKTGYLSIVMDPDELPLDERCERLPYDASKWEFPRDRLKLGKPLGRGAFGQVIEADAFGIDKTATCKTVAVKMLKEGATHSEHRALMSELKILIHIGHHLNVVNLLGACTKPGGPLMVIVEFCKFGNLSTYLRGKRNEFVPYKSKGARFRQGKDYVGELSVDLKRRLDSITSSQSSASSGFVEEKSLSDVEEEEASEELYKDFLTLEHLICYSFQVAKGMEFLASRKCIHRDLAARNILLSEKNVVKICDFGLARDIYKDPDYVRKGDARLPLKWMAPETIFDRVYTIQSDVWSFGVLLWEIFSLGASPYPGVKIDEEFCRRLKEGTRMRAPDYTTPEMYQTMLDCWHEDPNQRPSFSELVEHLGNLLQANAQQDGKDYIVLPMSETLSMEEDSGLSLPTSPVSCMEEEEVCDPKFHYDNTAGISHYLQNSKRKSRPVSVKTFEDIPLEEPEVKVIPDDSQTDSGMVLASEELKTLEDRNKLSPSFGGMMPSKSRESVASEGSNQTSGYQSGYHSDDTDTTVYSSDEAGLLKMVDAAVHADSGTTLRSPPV
Chain of EGFR (P00533 25-1210, species assumed): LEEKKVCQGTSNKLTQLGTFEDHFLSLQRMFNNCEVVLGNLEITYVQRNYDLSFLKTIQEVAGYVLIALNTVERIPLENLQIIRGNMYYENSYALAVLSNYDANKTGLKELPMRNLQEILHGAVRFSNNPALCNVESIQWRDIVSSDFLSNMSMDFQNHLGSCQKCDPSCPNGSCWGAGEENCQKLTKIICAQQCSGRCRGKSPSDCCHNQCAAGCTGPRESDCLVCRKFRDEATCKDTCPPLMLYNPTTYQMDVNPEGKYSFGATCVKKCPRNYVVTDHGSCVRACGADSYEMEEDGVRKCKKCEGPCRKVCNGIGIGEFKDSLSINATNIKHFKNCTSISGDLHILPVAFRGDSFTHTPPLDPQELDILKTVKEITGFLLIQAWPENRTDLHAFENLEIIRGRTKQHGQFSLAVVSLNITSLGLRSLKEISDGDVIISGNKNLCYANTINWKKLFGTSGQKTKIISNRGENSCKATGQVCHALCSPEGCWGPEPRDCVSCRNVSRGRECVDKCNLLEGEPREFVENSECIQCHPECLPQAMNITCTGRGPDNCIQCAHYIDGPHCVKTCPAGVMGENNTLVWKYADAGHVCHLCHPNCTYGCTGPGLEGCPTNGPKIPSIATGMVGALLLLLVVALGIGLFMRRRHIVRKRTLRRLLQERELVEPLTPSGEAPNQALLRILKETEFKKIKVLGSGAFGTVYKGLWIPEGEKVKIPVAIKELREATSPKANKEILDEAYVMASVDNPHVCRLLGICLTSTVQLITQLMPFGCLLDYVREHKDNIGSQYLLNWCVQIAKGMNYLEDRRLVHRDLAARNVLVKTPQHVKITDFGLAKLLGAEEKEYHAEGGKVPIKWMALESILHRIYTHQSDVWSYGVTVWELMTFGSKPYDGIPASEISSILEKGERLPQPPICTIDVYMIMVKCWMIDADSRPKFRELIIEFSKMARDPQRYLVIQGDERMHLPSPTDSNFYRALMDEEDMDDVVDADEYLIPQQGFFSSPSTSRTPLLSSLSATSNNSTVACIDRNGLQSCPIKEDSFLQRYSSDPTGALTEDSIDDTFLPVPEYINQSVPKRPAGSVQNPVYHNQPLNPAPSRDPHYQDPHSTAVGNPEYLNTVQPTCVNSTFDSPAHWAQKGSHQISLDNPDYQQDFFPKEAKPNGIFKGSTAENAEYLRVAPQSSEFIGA

For `Cc1[nH]c(/C=C2\C(=O)Nc3cccc(-c4ccc(Br)cc4)c32)c(C)c1C(=O)NCCN(C(C)C)C(C)C` [Example 60, 5-[4-(4-Bromo-phenyl)-2-oxo-1,2-dihydro-indol-3-ylidenemethyl]-2,4-dimethyl-1H-pyrrole-3-carboxylic Acid (2-Diisopropylamino-ethyl)-amide], the IC50 (FLK-1) was 18 nM, the IC50 (EGFR) was 7010 nM and the IC50 (FGFR3) was 550 nM.
For `COc1ccc(-c2cccc3c2/C(=C/c2[nH]c(C)c(C(=O)NCCN4CCCC4)c2C)C(=O)N3)cc1` [Example 38, 5-[4-(4-Methoxy-phenyl)-2-oxo-1,2-dihydro-indol-3-ylidenemethyl]-2,4-dimethyl-1H-pyrrole-3-carboxylic Acid (2-Pyrrolidin-1-yl-ethyl)-amide], the IC50 (FLK-1) was 29 nM, the IC50 (EGFR) was 16400 nM and the IC50 (FGFR3) was 46 nM.
`CCOC(=O)c1c(C)[nH]c(/C=C2\C(=O)Nc3cccc(-c4cccc(F)c4)c32)c1CCCN1CCN(C)CC1` [Example 18, 5-[4-(3-Fluoro-phenyl)-2-oxo-1,2-dihydro-indol-3-ylidenemethyl]-2-methyl-4-[3-(4-methyl-piperazin-1-yl)-propyl]-1H-pyrrole-3-carboxylic Acid Ethyl Ester] gave an IC50 (FLK-1) of 420 nM, an IC50 (EGFR) of 9330 nM and an IC50 (FGFR3) of 350 nM.
`CCN(CC)CCNC(=O)c1c(C)[nH]c(/C=C2\C(=O)Nc3cccc(-c4cccc(Cl)c4)c32)c1C` [Example 29, 5-[4-(3-Chloro-phenyl)-2-oxo-1,2-dihydro-indol-3-ylidenemethyl]-2,4-dimethyl-1H-pyrrole-3-carboxylic Acid (2-Diethylamino-ethyl)-amide] showed an IC50 (FLK-1) of 41 nM, an IC50 (EGFR) of 12900 nM and an IC50 (FGFR3) of 320 nM.
`Cc1[nH]c(/C=C2\C(=O)Nc3cccc(-c4ccc(F)cc4)c32)c(C)c1C(=O)NCCN1CCCC1` [Example 6, 5-[4-(4-Fluoro-phenyl)-2-oxo-1,2-dihydro-indol-3-ylidenemethyl]-2,4-dimethyl-1H-pyrrole-3-carboxylic Acid (2-Pyrrolidin-1-yl-ethyl)-amide] was tested, and the IC50 (FLK-1) was 21 nM and the IC50 (EGFR) was 16200 nM.
`CCN(CC)CCNC(=O)c1c(C)[nH]c(/C=C2\C(=O)Nc3cccc(-c4cccc(Br)c4)c32)c1C` [Example 63, 5-[4-(3-Bromo-phenyl)-2-oxo-1,2-dihydro-indol-3-ylidenemethyl]-2,4-dimethyl-1H-pyrrole-3-carboxylic Acid (2-Diethylamino-ethyl)-amide] showed an IC50 (FLK-1) of 43 nM, an IC50 (EGFR) of 15000 nM and an IC50 (FGFR3) of 94 nM.
For `Cc1cc(C(=O)N2CC[C@H](N(C)C)C2)c(/C=C2\C(=O)Nc3cccc(-c4cccc(Cl)c4)c32)[nH]1` [Example 32, 4-(3-Chloro-phenyl)-3-[3-((S)-3-dimethylamino-pyrrolidine-1-carbonyl)-5-methyl-1H-pyrrol-2-ylmethylene]-1,3-dihydro-indol-2-one], the IC50 (FLK-1) was 51 nM and the IC50 (FGFR3) was 1770 nM.
`CCN(CC)CCNC(=O)c1c(C)[nH]c(/C=C2\C(=O)Nc3cccc(-c4cccc(F)c4)c32)c1C` [Example 13, 5-[4-(3-Fluoro-phenyl)-2-oxo-1,2-dihydro-indol-3-ylidenemethyl]-2,4-dimethyl-1H-pyrrole-3-carboxylic Acid (2-Diethylamino-ethyl)-amide] was tested, and the IC50 (FLK-1) was 13 nM, the IC50 (EGFR) was 13100 nM and the IC50 (FGFR3) was 21 nM.
Work on `Cc1cc(C(=O)N2CC[C@@H](N(C)C)C2)c(/C=C2\C(=O)Nc3cccc(-c4ccc(Cl)cc4)c32)[nH]1` [Example 25, 4-(4-Chloro-phenyl)-3-[3-((R)-3-dimethylamino-pyrrolidine-1-carbonyl)-5-methyl-1H-pyrrol-2-ylmethylene]-1,3-dihydro-indol-2-one] yielded an IC50 (FLK-1) of 180 nM and an IC50 (FGFR3) of 340 nM.
Compound `Cc1[nH]c(/C=C2\C(=O)Nc3cccc(-c4ccc(Cl)cc4)c32)c(C)c1C(=O)N1CCN(C)CC1` [Example 20, 4-(4-Chloro-phenyl)-3-[3,5-dimethyl-4-(4-methyl-piperazine-1-carbonyl)-1H-pyrrol-2-ylmethylene]-1,3-dihydro-indol-2-one] has an IC50 (FLK-1) of 230 nM and an IC50 (FGFR3) of 1290 nM.
`Cc1[nH]c(/C=C2\C(=O)Nc3cccc(-c4ccc(Cl)cc4)c32)c(C)c1C(=O)NCCN1CCCC1` [Example 22, 5-[4-(4-Chloro-phenyl)-2-oxo-1,2-dihydro-indol-3-ylidenemethyl]-2,4-dimethyl-1H-pyrrole-3-carboxylic Acid (2-Pyrrolidin-1-yl-ethyl)-amide] showed an IC50 (FLK-1) of 16 nM, an IC50 (EGFR) of 15900 nM and an IC50 (FGFR3) of 74 nM.
For `Cc1[nH]c(/C=C2\C(=O)Nc3cccc(-c4cccc(F)c4)c32)c(C)c1C(=O)NCCn1ccnn1` [Example 15, 5-[4-(3-Fluoro-phenyl)-2-oxo-1,2-dihydro-indol-3-ylidenemethyl]-2,4-dimethyl-1H-pyrrole-3-carboxylic Acid (2-[1,2,3]Triazol-1-yl-ethyl)-amide], the IC50 (FLK-1) was 32 nM and the IC50 (FGFR3) was 72 nM.
In the case of `CCN(CC)CCNC(=O)c1c(C)[nH]c(/C=C2\C(=O)Nc3cccc(-c4cccc(OC)c4)c32)c1C` [Example 46, 5-[4-(3-Methoxy-phenyl)-2-oxo-1,2-dihydro-indol-3-ylidenemethyl]-2,4-dimethyl-1H-pyrrole-3-carboxylic Acid (2-Diethylamino-ethyl)-amide], the IC50 (FLK-1) is reported as 9 nM and the IC50 (FGFR3) is reported as 9 nM.
